Source: patent publication US20150072968A1, “Treating Infections with Ceftolozane/Tazobactam in Subjects Having Impaired Renal Function” (Calixa Therapeutics, Inc., priority 2013, published 2015)
Like-named read-outs stand apart in the source and are kept apart here.

Tests used:
[1] = Population pharmacokinetic analysis of 10 clinical studies (Example 7); type: in vivo, human
Text: Base model development. […] Intrinsic covariates analyzed included body weight, age, gender, ethnicity, and baseline calculated CrCL). The CrCL was estimated using the Cockcroft-Gault formula: […] […] Final population PK model: evaluation and performance. […] Smaller shrinkage ≦0.2 indicates good individual estimates.

[2] = clinical; details: human, in vivo
Text: CXA-201 plasma concentrations from 6 subjects with ESRD following a single dose without HD and a second dose with HD were used to develop a pPK model (Phoenix NLME, Pharsight).

[3] = Pharmacokinetics of ceftolozane/tazobactam in healthy volunteers; type: in vivo, human
[4] = cited from earlier work
[5] = test system: P. aeruginosa; details: neutropenic murine-thigh infection model; cited from earlier work
[6] = cited from earlier work; remark: listed apart in the source
[7] = Phase 1 single dose PK of 750 mg ceftolozane/tazobactam in severe renal impairment and ESRD on hemodialysis (Example 8); type: in vivo, human; details: for AUC(0-t) / Cmax / half-life / Tmax / AUC(0-inf) / clearance / Vd: both sexes, human, plasma; for Cmax: read-out: Cmax, Mean (CV %); for half-life: read-out: t1/2, Mean (CV %) (converted); for Tmax: read-out: tmax, Median (minimum, maximum); for AUC(0-inf): read-out: AUC∞, Mean (CV %); for clearance: read-out: CL, Mean (CV %) (converted); for Vd: read-out: Vss, Mean (CV %)
Description: This was a Phase 1, multicenter, prospective, open-label study of 750 mg ceftolozane/tazobactam (as CXA-201) administered IV in male and female adult subjects with severe renal impairment (estimated CLCR<30 mL/min) and subjects with end-stage renal disease (ESRD) on hemodialysis (HD). The primary objective of the study was to determine the PK profile of ceftolozane/tazobactam in subjects with severe renal impairment and subjects with ESRD on HD and to determine the effect of HD on the clearance of ceftolozane/tazobactam.
Subjects with severe renal impairment received a single IV 1-hour infusion of 750 mg ceftolozane/tazobactam on Day 1. […] Subjects in this cohort received an IV dose of 750 mg ceftolozane/tazobactam as a 1 hour infusion immediately after their first HD session on Day 1 (postdialysis, approximately 72 hours prior to the next HD session) and a second dose of ceftolozane/tazobactam approximately 2 hours before their second HD session on Day 4 of the study. Infusion of ceftolozane/tazobactam was completed approximately 1 hour before the start of HD.
Subjects in both cohorts had urine (if not anuric) and plasma samples collected for determination of levels of ceftolozane, tazobactam and the M1 metabolite of tazobactam; subjects in the ESRD on HD cohort also had dialysate fluid samples collected for PK assessment. Plasma, urine, and dialysate levels of ceftolozane, tazobactam, and its metabolite M1 collected over a prespecified interval were determined by LC/MS/MS assay.
All subjects underwent hemodialysis for 3 to 4 hours using a high-flux membrane (either 1.4, 1.8, or 1.9 m^2) on Days 1, 4, and 6 as scheduled. Average blood flow rate was 264 to 600 mL/min and average dialysis flow rate was either 600 or 800 mL/min for all subjects with ESRD.

[8] = Phase I PK studies in subjects with varying degrees of renal function (Example 11); type: in vivo, human
Text: Male and female subjects, aged 18 to 79 years, with varying degrees of renal function were enrolled in two, prospective, open-label, phase I studies of intravenous ceftolozane/tazobactam. A total of 36 subjects were enrolled into cohorts based on degree of renal function: normal (n=11), mild impairment (n=6), moderate impairment (n=7), severe impairment (n=6), and ESRD on HD (n=6). To ensure subjects with ESRD were receiving effective HD, a target adequacy of HD calculated from the pre- and post-blood urea nitrogen ratios (Kt/V) of at least 1.2 for a minimum of 3 months prior to enrollment was required. Renal impairment groups were classified according to the 2010 U.S.

[9] = intravenous, 750 mg, ESRD on HD, second infusion Day 4, start of infusion to end of dialysis
[10] = iv, 750 mg, ESRD on HD, Day 1 IV infusion of 750 mg (non-hemodialysis phase)
[11] = iv, 750 mg, ESRD on HD, second IV infusion of 750 mg on Day 4 (during HD)
[12] = iv, 750 mg, severe renal impairment, single IV 1-hour infusion of 750 mg ceftolozane/tazobactam
[13] = moderate renal impairment, single 1,000 mg/500 mg dose
[14] = severe renal impairment, single 500 mg/250 mg dose

Cn1c(N)c(NC(=O)NCCN)c[n+]1CC1=C(C(=O)[O-])N2C(=O)[C@@H](NC(=O)/C(=N\OC(C)(C)C(=O)O)c3nsc(N)n3)[C@H]2SC1 [Ceftolozane, (6R,7R)-3-[(5-amino-4-{[(2-aminoethyl)carbamoyl]amino}-1-methyl-1H-pyrazol-2-ium-2-yl)methyl]-7-({(2Z)-2-(5-amino-1,2,4-thiadiazol-3-yl)-2-[(1-carboxy-1-methylethoxy)imino]acetyl}amino)-8-oxo-5-thia-1-azabicyclo[4.2.0]oct-2-ene-2-carboxylate]
Vc ([1]; cIAI): 18.2 L | Vc ([1]; cUTI, at 74 kg body weight): 13.8 L | between-subject variability (BSV) of CL ([1]; final population PK model): 33.0% | clearance ([1]; human, plasma, intravenous, patients with cIAI, at CrCL=109 mL/min, read-out: CL (converted)): 104 mL/min | CL higher than that in healthy subjects ([1]; patients with cUTI and cIAI): about 20% | CL ([1]; patients with cUTI, at CrCL=109 mL/min): 6.18 L/h | Vd [2]: 6 L | clearance [2]: 5.67 mL/min | increase of CL by HD [2]: 60 fold | increase of Vc by HD [2]: 4.7 fold | clearance ([3]; human, plasma, intravenous, after a single dose of CXA-201, read-out: plasma CL): 68.3 to 112 mL/min | CL renal ([3]; human, urine and plasma, intravenous, after a single dose of CXA-201, read-out: renal clearance): 56.8 to 112 mL/min | excreted in the urine as unchanged parent drug ([3]; single 1.5 g intravenous dose of CXA-201, healthy male adults): greater than 95% | protein binding [4]: approximately 20% | free-drug (f) % T>MIC associated with a 1-log10 CFU reduction from baseline [5]: 32.2 | free-drug (f) % T>MIC associated with net bacterial stasis [5]: 24.8 | terminal elimination half-life (t½β) ([6]; healthy volunteers): approximately 2.5 hours | Terminal elimination half-lives (t1/2) ([6]; patients with normal renal function): approximately 2.5 h | AUC(0-t) ([7]; intravenous, 750 mg, ESRD on HD, second infusion Day 4, approximately 6 hours from start of infusion to end of dialysis, read-out: AUClast, Mean (CV %)): 87.5 µg·h/mL | Cmax [7, 9]: 40900 ng/mL | half-life [7, 9]: 1.25 h | Tmax [7, 9]: 1 h | AUC(0-t) ([7]; intravenous, 750 mg, subjects with ESRD, read-out: Exposure (AUC48h) After HD (Day 1), Median (Range)): 903 µg·h/mL | AUC(0-t) ([7]; intravenous, 750 mg, subjects with ESRD, read-out: Exposure (AUC48h) During HD (Day 3), Median (Range)): 298 µg·h/mL | AUC(0-inf) [7, 10]: 1680 µg·h/mL | clearance [7, 10]: 6.67 mL/min | Cmax [7, 10]: 44500 ng/mL | Vd [7, 10]: 19.2 L | half-life [7, 10]: 39.8 h | AUC(0-t) ([7]; iv, 750 mg, ESRD on HD, Day 1 IV infusion of 750 mg (non-hemodialysis phase), through 48 hours, read-out: AUClast, Mean (CV %)): 910 µg·h/mL | Cmax [7, 11]: 40900 ng/mL | half-life [7, 11]: 43.5 h | AUC(0-t) ([7]; iv, 750 mg, ESRD on HD, second IV infusion of 750 mg on Day 4 (during HD), through 44 hours, read-out: AUClast, Mean (CV %)): 304 µg·h/mL | AUC(0-t) ([7]; iv, 750 mg, severe renal impairment, single IV 1-hour infusion of 750 mg ceftolozane/tazobactam, through 48 hours, read-out: AUClast, Mean (CV %)): 511 µg·h/mL | Cmax [7, 12]: 49900 ng/mL | AUC(0-inf) [7, 12]: 537 µg·h/mL | clearance [7, 12]: 16.7 mL/min | Vd [7, 12]: 13.8 L | half-life [7, 12]: 11.1 h | Tmax ([7]; ESRD on HD, second IV infusion of 750 mg on Day 4 (during HD)): 1 h | AUC48h Ratio (Day 3:1), Median (Range) ([7]; subjects with ESRD, during HD vs after HD): 0.34 (0.26 − 0.48) | Percent Removed, Median (Range) ([7]; subjects with ESRD, hemodialysis): 66 (52 − 74) Percent | extraction ratio ([8]; 1 h after the start of HD): 42% | extraction ratio ([8]; 2 h after the start of HD): 48% | median Cmax in plasma higher compared with normal renal function, dose normalized ([8]; ESRD during non-HD): 1.2 fold | average extraction ratio during HD ([8]; ESRD on HD): 46% | median RDHD (percent reduction in plasma concentration during HD) ([8]; ESRD on HD): 92% | reduction in overall exposure based on the AUC0-∞ on and off HD ([8]; ESRD on HD): approximately 66% | plasma concentration rebound peak following HD, of the original Cmax ([8]; ESRD, period following HD): approximately 17% | extraction ratio ([8]; at end of HD): 47% | clearance ([8]; both sexes, human, dialysate and plasma, intravenous, ESRD on HD, read-out: median dialysis clearance (CLD) (converted)): 95.8 mL/min | half-life ([8]; both sexes, human, plasma, intravenous, ESRD on HD, read-out: t1/2 during the HD period (converted)): 1.13 h | increase of median AUC0-∞ compared with normal renal function [8, 13]: 2.5 fold | increase of median Cmax compared with normal renal function [8, 13]: 1.2 fold | increase of median AUC0-∞ compared with dose-normalized exposure in normal renal function [8, 14]: 4.4 fold | increase of median Cmax compared with dose-normalized exposure in normal renal function [8, 14]: 1.3 fold
